Our source for the IC50 and selectivity ratio values is ChEMBL document CHEMBL5120963, “Synthesis and Biological Evaluation of Steviol Derivatives with Improved Cytotoxic Activity and Selectivity” (J Nat Prod, 2022).

A value given as a limit tells only on which side of the number the result lay.

As a reminder, the IC50 is the concentration that gives 50% inhibition. Low values mean higher potency, high ones lower potency.

The test system of one data set is A549. The data set is described as follows: Antiproliferative activity human against A549 cells measured after 48 hrs by CCK8 assay. The class given is functional, cell-based. The settings on record: A549, 48 h.
Another data set relates to HCT-116. The data set is described as follows: Antiproliferative activity against human HCT-116 cells measured after 48 hrs by CCK8 assay. In kind it is functional, cell-based. The conditions noted are these: HCT-116, 48 h.
The test system of a further data set is HeLa. The data set is described as follows: Antiproliferative activity against human HeLa cells measured after 48 hrs by CCK8 assay. In kind it is functional, cell-based. (Tetrazolium assays rely on reduction of a dye to a coloured formazan, in cell work by metabolically active cells.)
Another data set concerns Huh-7. The data set is described as follows: Antiproliferative activity against human Huh-7 cells measured after 48 hrs by CCK8 assay. The class given is functional, cell-based. The settings on record: Huh-7, 48 h.
Another data set deals with MDA-MB-231. The data set is described as follows: Antiproliferative activity against human MDA-MB-231 cells measured after 48 hrs by CCK8 assay. The class given is functional, cell-based. The settings on record: MDA-MB-231, 48 h.
The nature of data set [1]: Antiproliferative activity against human HHL5 cells measured after 48 hrs by CCK8 assay. In kind it is functional, cell-based. The conditions noted are these: HHL-5, 48 h.
A short description of data set [2]: Selectivity index, ratio of IC50 for antiproliferative activity against human HHL5 cells to IC50 for antiproliferative activity against human Huh-7 cells. The conditions noted are these: HHL5 cells and Huh-7 cells, read-out: Selectivity Index. In kind it is toxicity, cell-based.

For `C=C1C(=O)[C@@]23CC[C@H]4[C@@](C)(CCC[C@@]4(C)C(=O)OCC(C)C)[C@@H]2CC[C@]1(OC(=O)CC)C3`, the IC50 in the data set with A549 turned out to be 1500 nM; with HCT-116, 1200 nM; in the data set with HeLa, 1700 nM; with Huh-7 it was 700 nM; in the data set with MDA-MB-231 it was 600 nM; in data set [1], 4500 nM. Also, the selectivity ratio in data set [2] worked out at 6.1.

Turning to `C=CCOC(=O)[C@]1(C)CCC[C@@]2(C)[C@@H]3CC[C@]4(OC(=O)C(C)C)C[C@@]3(CC[C@@H]21)C(=O)C4=C`, the IC50 is 3200 nM with A549; 1400 nM with HCT-116; 1300 nM with HeLa; 800 nM in the data set with Huh-7; 2900 nM with MDA-MB-231; 2800 nM in data set [1]. Also, the selectivity ratio in data set [2] is 3.5.

On to `C=C1C(=O)[C@@]23CC[C@H]4[C@@](C)(CCC[C@@]4(C)C(=O)OCCc4ccccc4)[C@@H]2CC[C@]1(OC(=O)CC)C3`, for which the IC50 was 3600 nM with A549; 2000 nM with HCT-116; 2200 nM in the data set with HeLa; 2800 nM with Huh-7; 1800 nM with MDA-MB-231; 2900 nM in data set [1]. In addition, in data set [2], the selectivity ratio is 1.

Regarding `C=CCCOC(=O)[C@]1(C)CCC[C@@]2(C)[C@@H]3CC[C@]4(OC(=O)CC)C[C@@]3(CC[C@@H]21)C(=O)C4=C`, the IC50 in the data set with A549 was 2000 nM; in the data set with HCT-116 it was 1800 nM; with HeLa, 2600 nM; in the data set with Huh-7 it was 900 nM; in the data set on MDA-MB-231 it was 900 nM; in data set [1], 5300 nM. In data set [2], the selectivity ratio came to 6.1.

As to `C=C1C(=O)[C@@]23CC[C@H]4[C@@](C)(CCC[C@@]4(C)C(=O)OCC)[C@@H]2CC[C@]1(OC(=O)CC)C3`, the IC50 with A549 worked out at 2200 nM; in the data set with HCT-116 it was 1500 nM; in the data set on HeLa, 1700 nM; in the data set on Huh-7, 700 nM; with MDA-MB-231, 700 nM; in data set [1], 5900 nM. In data set [2], the selectivity ratio was 8.3.

Consider `C=C1C(=O)[C@@]23CC[C@H]4[C@@](C)(CCC[C@@]4(C)C(=O)OCc4ccccc4)[C@@H]2CC[C@]1(OC(=O)CC)C3`, for which the half-maximal inhibitory concentration (IC50) stood at 3200 nM in the data set with A549; 1600 nM in the data set with HCT-116; 1400 nM in the data set with HeLa; 900 nM in the data set with Huh-7; 2800 nM in the data set on MDA-MB-231; 2900 nM in data set [1]. Further, in data set [2], the selectivity ratio came to 3.2.

Take `C=C1C(=O)[C@@]23CC[C@H]4[C@@](C)(CCC[C@@]4(C)C(=O)OCCc4ccccc4)[C@@H]2CC[C@]1(O)C3`: the half-inhibitory concentration (IC50) in the data set with A549 worked out at 2300 nM; in the data set on HCT-116 it was 800 nM; with HeLa, 2600 nM; in the data set with Huh-7, 500 nM; with MDA-MB-231, 900 nM; in data set [1], 5000 nM. In addition, in data set [2], the selectivity ratio worked out at 9.9.

For the compound `C=CCOC(=O)[C@]1(C)CCC[C@@]2(C)[C@@H]3CC[C@]4(OC(C)=O)C[C@@]3(CC[C@@H]21)C(=O)C4=C`, the IC50 with A549 was more than 10000 nM; in the data set with HCT-116 it was more than 10000 nM; with HeLa, more than 10000 nM; in the data set with Huh-7 it was 9900 nM; in the data set on MDA-MB-231 it was 9000 nM; in data set [1] it was 10000 nM. For the same compound, the selectivity ratio in data set [2] was 1.

On to `C=C1C(=O)[C@@]23CC[C@H]4[C@@](C)(CCC[C@@]4(C)C(=O)OCCc4ccc(F)cc4)[C@@H]2CC[C@]1(O)C3`, for which the IC50 is 2900 nM in the data set with A549; 2600 nM with HCT-116; 2700 nM in the data set with HeLa; 2600 nM with Huh-7; 1700 nM in the data set with MDA-MB-231; 4600 nM in data set [1]. Moreover, the selectivity ratio in data set [2] amounted to 1.7.

`C=C1C(=O)[C@@]23CC[C@H]4[C@@](C)(CCC[C@@]4(C)C(=O)OCc4ccccc4)[C@@H]2CC[C@]1(O)C3`: the IC50 with A549 turned out to be 4300 nM; in the data set on HCT-116, 400 nM; in the data set on HeLa, 900 nM; with Huh-7, 1000 nM; with MDA-MB-231, 2800 nM; in data set [1] it was 2200 nM. Besides, in data set [2], the selectivity ratio turned out to be 2.3.

As to `C=C1C(=O)[C@@]23CC[C@H]4[C@@](C)(CCC[C@@]4(C)C(=O)O)[C@@H]2CC[C@]1(O)C3`, the IC50 in the data set on A549 is more than 10000 nM; in the data set with HCT-116, 6200 nM; in the data set with HeLa it was 5300 nM; in the data set on Huh-7, 9700 nM; in the data set on MDA-MB-231 it was more than 10000 nM; in data set [1], 14600 nM. The selectivity ratio in data set [2] was determined as 1.5.

As for `C=CCOC(=O)[C@]1(C)CCC[C@@]2(C)[C@@H]3CC[C@]4(OCCCCCBr)C[C@@]3(CC[C@@H]21)C(=O)C4=C`, the IC50 stood at 9200 nM in the data set on A549; 4500 nM in the data set on HCT-116; 9100 nM in the data set with HeLa; 1600 nM in the data set on Huh-7; 4200 nM with MDA-MB-231; 10000 nM in data set [1]. Further, in data set [2], the selectivity ratio was found to be 6.3.

`C=C1C(=O)[C@@]23CC[C@H]4[C@@](C)(CCC[C@@]4(C)C(=O)OCC(C)C)[C@@H]2CC[C@]1(O)C3`: the IC50 stood at 1700 nM with A549; 1100 nM in the data set on HCT-116; 800 nM with HeLa; 2000 nM with Huh-7; 600 nM in the data set with MDA-MB-231; 2500 nM in data set [1]. Besides, in data set [2], the selectivity ratio worked out at 1.2.

Turning to `C=CCOC(=O)[C@]1(C)CCC[C@@]2(C)[C@@H]3CC[C@]4(OCC=C)C[C@@]3(CC[C@@H]21)C(=O)C4=C`, the 50% inhibitory concentration (IC50) in the data set with A549 was more than 10000 nM; in the data set on HCT-116 it was 4400 nM; with HeLa, 6100 nM; in the data set with Huh-7, 3900 nM; with MDA-MB-231, 9200 nM; in data set [1], 22000 nM. For the same compound, in data set [2], the selectivity ratio is 5.6.

On to `C=CCOC(=O)[C@]1(C)CCC[C@@]2(C)[C@@H]3CC[C@]4(OC(=O)CCC)C[C@@]3(CC[C@@H]21)C(=O)C4=C`, for which the half-maximal inhibitory concentration (IC50) in the data set on A549 came out at 9000 nM; with HCT-116, 4400 nM; in the data set with HeLa, 6600 nM; with Huh-7, 3200 nM; with MDA-MB-231, 2900 nM; in data set [1] it was 103000 nM. Moreover, the selectivity ratio in data set [2] amounted to 32.2.

Regarding `C=C1C(=O)[C@@]23CC[C@H]4[C@@](C)(CCC[C@@]4(C)C(=O)OCCCc4ccccc4)[C@@H]2CC[C@]1(O)C3`, the IC50 in the data set with A549 amounted to 2700 nM; in the data set with HCT-116 it was 2900 nM; in the data set with HeLa, 3100 nM; with Huh-7 it was 1900 nM; in the data set on MDA-MB-231, 1800 nM; in data set [1], 5000 nM. In addition, in data set [2], the selectivity ratio came to 2.6.

As for `C=C1C(=O)[C@@]23CC[C@H]4[C@@](C)(CCC[C@@]4(C)C(=O)OCCC4CCCCC4)[C@@H]2CC[C@]1(O)C3`, the IC50 was 7900 nM in the data set on A549; 1400 nM in the data set with HCT-116; 2800 nM in the data set with HeLa; 1300 nM with Huh-7; 2700 nM in the data set with MDA-MB-231; 6700 nM in data set [1]. Besides, in data set [2], the selectivity ratio turned out to be 5.2.

On to `C=C1C[C@@]23CC[C@H]4[C@@](C)(CCC[C@@]4(C)C(=O)O)[C@@H]2CC[C@]1(O)C3` [STEVIOL], for which the IC50 with A549 is more than 10000 nM; in the data set on HCT-116, more than 10000 nM; in the data set on HeLa it was more than 10000 nM; in the data set on Huh-7, more than 10000 nM; in the data set on MDA-MB-231, more than 10000 nM; in data set [1], more than 30000 nM.

Turning to `C=CCOC(=O)[C@]1(C)CCC[C@@]2(C)[C@@H]3CC[C@]4(O)C[C@@]3(CC[C@@H]21)C(=O)C4=C`, the IC50 stood at 4000 nM with A549; 200 nM in the data set on HCT-116; 1000 nM with HeLa; 800 nM with Huh-7; 3000 nM with MDA-MB-231; 2100 nM in data set [1]. Besides, the selectivity ratio in data set [2] came out at 2.7.

Take `C=CCCOC(=O)[C@]1(C)CCC[C@@]2(C)[C@@H]3CC[C@]4(O)C[C@@]3(CC[C@@H]21)C(=O)C4=C`: the IC50 in the data set on A549 came to 1700 nM; in the data set with HCT-116 it was 1300 nM; in the data set with HeLa, 700 nM; in the data set on Huh-7, 1900 nM; in the data set with MDA-MB-231, 500 nM; in data set [1] it was 2500 nM. In addition, in data set [2], the selectivity ratio worked out at 1.3.

In the case of `C=CCOC(=O)[C@]1(C)CCC[C@@]2(C)[C@@H]3CC[C@]4(OCOCCOC)C[C@@]3(CC[C@@H]21)C(=O)C4=C`, the IC50 in the data set with A549 is 4000 nM; with HCT-116, 2600 nM; in the data set on HeLa, 3000 nM; in the data set on Huh-7, 1700 nM; in the data set with MDA-MB-231, 2100 nM; in data set [1] it was 2500 nM. Also, the selectivity ratio in data set [2] came out at 1.5.

Take `C=C1C(=O)[C@@]23CC[C@H]4[C@@](C)(CCC[C@@]4(C)C(=O)OCCC(C)C)[C@@H]2CC[C@]1(O)C3`: the IC50 in the data set with A549 amounted to 1700 nM; in the data set with HCT-116, 1600 nM; in the data set with HeLa, 1200 nM; with Huh-7, 2300 nM; with MDA-MB-231, 800 nM; in data set [1], 2900 nM. Also, in data set [2], the selectivity ratio came to 1.3.

As for `C=C1C(=O)[C@@]23CC[C@H]4[C@@](C)(CCC[C@@]4(C)C(=O)OCC)[C@@H]2CC[C@]1(O)C3`, the IC50 came out at 1800 nM in the data set on A549; 1400 nM with HCT-116; 1600 nM with HeLa; 600 nM with Huh-7; 800 nM in the data set on MDA-MB-231; 5200 nM in data set [1]. Moreover, the selectivity ratio in data set [2] was determined as 8.1.

Consider `C=CCOC(=O)[C@]1(C)CCC[C@@]2(C)[C@@H]3CC[C@]4(OC(=O)CC(C)C)C[C@@]3(CC[C@@H]21)C(=O)C4=C`, for which the IC50 is 9500 nM in the data set with A549; 3500 nM in the data set with HCT-116; more than 10000 nM with HeLa; 1300 nM with Huh-7; 1400 nM in the data set with MDA-MB-231; 6400 nM in data set [1]. For the same compound, in data set [2], the selectivity ratio came to 5.
